Drawing on the OligoGym collection, this text covers target mRNA inhibition for 87 sequences.

One series addresses MALAT1. The settings on record: ASO, A431, 0.005 µM.
In another series the target is IRF4. The following applies: ASO.

Where “and” joins values, the source holds several entries; their conditions need not be identical. Equal values may be shown once. After the bases stand the sugars from the 5' end (letter, count) and the backbone: PS all phosphorothioate, else s phosphorothioate and o phosphodiester by linkage. Methylation of C is not given here. e = 2'-O-(2-methoxyethyl) (MOE); k = constrained ethyl (cEt); d = 2'-deoxy (DNA)

For TACCTTTTACTCTGAT (sugars k3 d10 k3, PS), in the series with MALAT1, the target mRNA inhibition stood at 42%.
For TAGATTCACTGAATCC (sugars k3 d10 k3, PS), the target mRNA inhibition with MALAT1 is -4%.
On the same count and under the same terms, the value for CTAAAAGCATTGCCCT (sugars k3 d10 k3, PS) was 35%.
CGCAGACAAAGTTTCT (sugars k3 d10 k3, PS): the target mRNA inhibition with MALAT1 stood at 57%.
The same measure, in the same setting: then TCAGGATCATTAAGCC (sugars k3 d10 k3, PS), with 37%; and CCAAAAGCCTTCTGCC (sugars k3 d10 k3, PS), with 34%; and CATCACCGGAATTCGA (sugars k3 d10 k3, PS), with 2%.
On the same count and under the same terms, the value for AGCCTATAAGGACAGC (sugars k3 d10 k3, PS) was 23%; that for CCCCAAGACCAAACTG (sugars k3 d10 k3, PS) was -9%.
Same read-out and setting: then CCGGAGCAGGAAGAAA (sugars k3 d10 k3, PS), with 23%; and ATTGTAGTTAATGTCA (sugars k3 d10 k3, PS), with 50%; and AGATACCTGTCTGAGG (sugars k3 d10 k3, PS), with 12%.
Regarding CCTCAATCCACTTGAT (sugars k3 d10 k3, PS), the target mRNA inhibition with MALAT1 is -2%.
On the same count and under the same terms, the value for TCTAGGATCCTCTACG (sugars k3 d10 k3, PS) was -24%; that for TAGGGAAAAGTGGTTG (sugars k3 d10 k3, PS) was -13%; that for GTTATGACTCAGAAGA (sugars k3 d10 k3, PS) was 26%.
On the same count and under the same terms, then GCAAGGTCTCATACAC (sugars k3 d10 k3, PS), with 48% and 59%; and CAAAAGCCCTCTCAGC (sugars k3 d10 k3, PS), with -14%; and AGTCAAAGCAAAGACG (sugars k3 d10 k3, PS), with 35%.
Same read-out and setting: the value for GCGGTTTCCTCAAGCT (sugars k3 d10 k3, PS) was 20%; that for TAACATAGTTCAACCC (sugars k3 d10 k3, PS) was 17%.
As for TTCACCAAGGAGCTGT (sugars k3 d10 k3, PS), in the series with MALAT1, the target mRNA inhibition was 37%.
On the same count and under the same terms, the value for CTGTGGTGGTCTGATT (sugars k3 d10 k3, PS) was 33%; that for AACCTACAACACCCGG (sugars k3 d10 k3, PS) was 34%; that for AGCTGCAGGCTATTAC (sugars k3 d10 k3, PS) was 39%.
On the same count and under the same terms, the value for TAACAGGCCACTGCCA (sugars k3 d10 k3, PS) was 11%; that for CCACCCTCTAAGAGAC (sugars k3 d10 k3, PS) was -17%; that for CTTCATTACCCCAACT (sugars k3 d10 k3, PS) was 14%.
With GCCTACTCAAGCTCTT (sugars k3 d10 k3, PS), the target mRNA inhibition with MALAT1 was 20%.
CCCTTCAAGCACCGCT (sugars k3 d10 k3, PS): the target mRNA inhibition with MALAT1 was determined as 28%.
Regarding ATCCCTTTACACCTCA (sugars k3 d10 k3, PS), the target mRNA inhibition with MALAT1 was determined as 36%.
CGCAGGGATTTGAACC (sugars k3 d10 k3, PS): in the series with MALAT1, the target mRNA inhibition stood at 15%.
In the case of CAATGCACTAAAGATC (sugars k3 d10 k3, PS), the target mRNA inhibition with MALAT1 was 10%.
As to ACAACTCGCATCACCG (sugars k3 d10 k3, PS), in the series with MALAT1, the target mRNA inhibition is -212%.
In the case of CGAGAAATCGGAGCAG (sugars k3 d10 k3, PS), the target mRNA inhibition in the series with MALAT1 is 22%.
Still for that read-out and setting: then TCCATGGTTGTCCTAC (sugars k3 d10 k3, PS), with 35%; and TGCTAGCTTGGCCAAG (sugars k3 d10 k3, PS), with 16%.
On the same count and under the same terms, the value for ACCCGGAAATCGGCCT (sugars k3 d10 k3, PS) was -6%.
On the same count and under the same terms, the value for GACAAGCAATTAACTT (sugars k3 d10 k3, PS) was 66% and 53%; that for ACTCAAAGTCCAATGC (sugars k3 d10 k3, PS) was 31%.
Turning to GGATTAATGTAGTGTA (sugars k3 d10 k3, PS), the target mRNA inhibition in the series with MALAT1 was 86% and 96%.
As to GATTAATGTAGTGTAA (sugars k3 d10 k3, PS), the target mRNA inhibition with MALAT1 is 23%.
On the same count and under the same terms, the value for TGATCTGCGGCCCCCC (sugars k3 d10 k3, PS) was -50%; that for CTGAAGAGCATTGGAG (sugars k3 d10 k3, PS) was 50%; that for TTCAGACCTTCTGAAC (sugars k3 d10 k3, PS) was -8%.
The same measure, in the same setting: the value for ACCAAAGCTGCACTGT (sugars k3 d10 k3, PS) was 15%.
As to AATTCCATAGAGCCAG (sugars k3 d10 k3, PS), the target mRNA inhibition with IRF4 (MM.1R, 1 µM) worked out at 18%.
As to ACAAGCTGGGCCTTGC (sugars k3 d10 k3, PS), the target mRNA inhibition with IRF4 (SK-MEL-28, 4 µM) came to 27%.
On the same count and under the same terms, the value for TTTAAGTCATGTGTCA (sugars k3 d10 k3, PS) was 50%.
With CCGCACTCACTCGCAG (sugars k3 d10 k3, PS), the target mRNA inhibition with IRF4 (SK-MEL-28, 4 µM) is 8%.
Same read-out and setting: the value for GGATAATATACCCCAA (sugars k3 d10 k3, PS) was 64%; that for GAGATAAGAAGCACTG (sugars k3 d10 k3, PS) was 44%.
As to “TCTATAGTGTTCCAGG (sugars kkddddddddddkeke, PS)”, the target mRNA inhibition worked out at 15% with IRF4 (MM.1R, 0.074 µM); 32% with IRF4 (MM.1R, 0.222 µM); 58% with IRF4 (MM.1R, 0.666 µM); 66% with IRF4 (MM.1R, 1 µM); 83% with IRF4 (MM.1R, 2 µM).
As to TTCCACACTGGATATG (sugars k3 d10 k3, PS), in the series with IRF4 (SK-MEL-28, 4 µM), the target mRNA inhibition was 41%.
Still for that read-out and setting: then GGGAGATCCGGCAGCC (sugars k4 d8 k4, PS), with -13%.
For TAGCATTCTTACAGCA (sugars k3 d10 k3, PS), the target mRNA inhibition with IRF4 (MM.1R, 0.0625 µM) is -4% and 15%; in the series with IRF4 (MM.1R, 0.074 µM), 0%; in the series with IRF4 (MM.1R, 0.222 µM), 34%; in the series with IRF4 (MM.1R, 0.25 µM), -7% and -4%; with IRF4 (MM.1R, 0.666 µM) it was 27%; with IRF4 (MM.1R, 1 µM), 7% and 20%. Also, the target mRNA inhibition in the series with IRF4 (MM.1R, 2 µM) is 52%; with IRF4 (MM.1R, 4 µM) it was 26% and 40%; in the series with IRF4 (SK-MEL-28, 4 µM) it was 57%.
Regarding TACTGCTGTACTTTCT (sugars k3 d10 k3, PS), the target mRNA inhibition with IRF4 (SK-MEL-28, 4 µM) came to 43%.
Turning to GATGACTCCATGAGGT (sugars k3 d10 k3, PS), in the series with IRF4 (SK-MEL-28, 4 µM), the target mRNA inhibition came out at 67%.
On to GTCCTTCAGATTTACA (sugars k3 d10 k3, PS), for which the target mRNA inhibition with IRF4 (MM.1R, 1 µM) was -17%.
With AAATATACCAGCTCAA (sugars k3 d10 k3, PS), in the series with IRF4 (SK-MEL-28, 4 µM), the target mRNA inhibition was found to be 25%.
Consider GATATAAATAGCTGTT (sugars k4 d8 k4, PS), for which the target mRNA inhibition in the series with IRF4 (MM.1R, 0.074 µM) was 5% and 3%; in the series with IRF4 (MM.1R, 0.222 µM), 6% and 15%; with IRF4 (MM.1R, 0.666 µM) it was 12%; in the series with IRF4 (MM.1R, 2 µM), 24% and 19%; with IRF4 (SK-MEL-28, 0.185 µM), 2% and 6% and 10%; with IRF4 (SK-MEL-28, 4 µM) it was 61%. The target mRNA inhibition in the series with IRF4 (SK-MEL-28, 5 µM) was 57% and 76%.
For the sequence “TGTGATAGCTGAGCTG (sugars kkdddddddddkdkdk, PS)”, in the series with IRF4 (MM.1R, 1 µM), the target mRNA inhibition is 47%.
Turning to CTAGAGGTGCCTTCTT (sugars k3 d10 k3, PS), the target mRNA inhibition with IRF4 (SK-MEL-28, 4 µM) worked out at 26%.
In the case of “CTTGATAAAGGCTGAA (sugars e1 k2 d9 k2 e2, PS)”, in the series with IRF4 (MM.1R, 1 µM), the target mRNA inhibition was determined as 17%.
In the case of AAGTTTACACTGGATC (sugars k3 d10 k3, PS), the target mRNA inhibition with IRF4 (SK-MEL-28, 4 µM) amounted to 58%.
Turning to TCTGGATTGCTGATGT (sugars k3 d10 k3, PS), the target mRNA inhibition in the series with IRF4 (MM.1R, 1 µM) was 36%.
Regarding AAGGAGTGCAGGAGAG (sugars k3 d10 k3, PS), the target mRNA inhibition in the series with IRF4 (SK-MEL-28, 4 µM) is 13%.
Same read-out and setting: then CGCGGTTGTAGTCCTG (sugars k3 d10 k3, PS), with 44%.
Regarding “TGGTTGGCTGGTCTTT (sugars kkdddddddddkekek, PS)”, in the series with IRF4 (MM.1R, 1 µM), the target mRNA inhibition is 44%.
Still for that read-out and setting: the value for CTTTATAGTAGGTAAG (sugars k3 d10 k3, PS) was -1%.
For the sequence TTCTAGGTAATCTGTA (sugars k3 d10 k3, PS), the target mRNA inhibition with IRF4 (SK-MEL-28, 4 µM) was found to be 38%.
Same read-out and setting: then CAATTTACATCTTACT (sugars k3 d10 k3, PS), with 21%.
Turning to “TGTGCTTGCCAAGCCT (sugars kddddddddddkekek, PS)”, in the series with IRF4 (MM.1R, 1 µM), the target mRNA inhibition is -1% and 3%.
With GCTAGAACATGATGAG (sugars k3 d10 k3, PS), the target mRNA inhibition with IRF4 (SK-MEL-28, 4 µM) came to 14%.
AACGACAAGTGGCGCA (sugars k3 d10 k3, PS): in the series with IRF4 (MM.1R, 1 µM), the target mRNA inhibition came out at 12%.
As to ATTTTATGGACCACGC (sugars k3 d10 k3, PS), the target mRNA inhibition with IRF4 (SK-MEL-28, 4 µM) was determined as 49%.
Consider GTCTAGCTGGGTTTTC (sugars k3 d10 k3, PS), for which the target mRNA inhibition with IRF4 (SK-MEL-28, 4 µM) came to 63%.
“AAGCATTTTATCATCC (sugars k3 d9 k3 e1, PS)”: the target mRNA inhibition with IRF4 (MM.1R, 1 µM) amounted to 33%.
Turning to “AAGCTTGATAAAGGCT (sugars k3 d9 k3 e1, PS)”, the target mRNA inhibition in the series with IRF4 (MM.1R, 1 µM) was 5%.
For CTACACCTACACAGGC (sugars k3 d10 k3, PS), the target mRNA inhibition in the series with IRF4 (SK-MEL-28, 4 µM) came out at 16%.
GATAAGGCACTACTTC (sugars k3 d10 k3, PS): the target mRNA inhibition with IRF4 (SK-MEL-28, 4 µM) came to 47%.
On to “TGCTTGAGGTTTTCCT (sugars kkdddddddddkekek, PS)”, for which the target mRNA inhibition with IRF4 (MM.1R, 1 µM) was 36%.
With ACGCAAGGCTCGGAGC (sugars k3 d10 k3, PS), in the series with IRF4 (SK-MEL-28, 4 µM), the target mRNA inhibition is 21%.
Consider CTTGTCTCGCCGCAAT (sugars k3 d10 k3, PS), for which the target mRNA inhibition with IRF4 (SK-MEL-28, 4 µM) is 65% and 47%.
On the same count and under the same terms, then AGTCTTTTCGCATAGA (sugars k3 d10 k3, PS), with 45%; and CCATTTAATCTGTCTA (sugars k3 d10 k3, PS), with 28%.
Consider “ACTTTTAGAGAGGAGA (sugars k3 d9 k3 e1, PS)”, for which, in the series with IRF4 (MM.1R, 1 µM), the target mRNA inhibition is 36%.
